The record followed here is ChEMBL document CHEMBL1201862, “PubChem BioAssay data set” (2004).

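Method: 48-hour compound exposure of cells in 96-well plates, five concentrations, linear interpolation of endpoints. GI50 is the concentration that inhibits growth by half.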 The source made the active and inactive calls. Rule as the data show it: active = GI50 up to about 1.1 µM and inactive = higher.

Some test systems named below: NCI/ADR-RES; RPMI-8226; SNB-75; UO-31; T47D; MOLT-4; HCT-15; SNB-19; SK-MEL-28; SF-539; CAKI-1; HOP-92; HL-60; HOP-62; HT-29; HCC 2998; OVCAR-3; MDA-MB-435; COLO 205; SF-295.
Common to all, as to assay: NCI tumour cell line growth inhibition, 48 h

Turning to `COc1cc(OC)cc(-c2cc(=O)c3c(OC)c(OC)c(OC)c(OC)c3o2)c1`, the GI50 was 29.8 µM (inactive) with NCI/ADR-RES; 16.9 µM (inactive) in the experiment on RPMI-8226; 20 µM (inactive) in the experiment with SNB-75; 10.8 µM (inactive) in the experiment on UO-31; 20.9 µM (inactive) with T47D; 18.3 µM (inactive) in the experiment on MOLT-4. The GI50 in the experiment on HCT-15 is 33.3 µM; in the experiment on SNB-19 it was 38.5 µM (inactive); in the experiment on SK-MEL-28 it was 40.3 µM (inactive); in the experiment with SF-539, 80 µM (inactive); in the experiment on CAKI-1, > 100 µM (inactive); in the experiment with HOP-92 it was 16.7 µM (inactive). In addition, the GI50 with HL-60 is 7.26 µM (inactive); in the experiment with HOP-62 it was 32.6 µM (inactive); in the experiment on HT-29, 28.7 µM (inactive); with HCC 2998 it was 31.7 µM (inactive); in the experiment on OVCAR-3, 18.8 µM (inactive); in the experiment on MDA-MB-435, 32.8 µM (inactive). In addition, the GI50 in the experiment on COLO 205 was 16.3 µM (inactive); in the experiment with SF-295 it was 23 µM (inactive).

As to `OC(c1cc(C(O)(C(F)(F)F)C(F)(F)F)ncn1)(C(F)(F)F)C(F)(F)F`, the GI50 in the experiment on NCI/ADR-RES, with RPMI-8226, in the experiment with SNB-75, with UO-31, in the experiment on T47D and in the experiment with MOLT-4 was > 10 µM (inactive) throughout. Also, the GI50 in the experiment with HCT-15 is over 10 µM; with SNB-19 it was > 10 µM (inactive); in the experiment with SK-MEL-28, > 10 µM (inactive); with SF-539, > 10 µM (inactive); in the experiment on CAKI-1, > 10 µM (inactive); in the experiment with HOP-92, > 10 µM (inactive). Also, the GI50 with HL-60, in the experiment with HOP-62, in the experiment on HT-29, with HCC 2998, in the experiment on OVCAR-3 and in the experiment on MDA-MB-435 was > 10 µM (inactive) each time. Besides, the GI50 in the experiment with COLO 205 and in the experiment on SF-295 was > 10 µM (inactive) throughout.

Regarding `COC(=O)[C@]1(c2cc3ccccc3[nH]2)CC2CN(CC(=O)N(C)OC)C1C1OC(C)(C)OC21` (stereo not given in full), the GI50 in the experiment with NCI/ADR-RES is 41.6 µM (inactive); in the experiment on RPMI-8226, 23.2 µM (inactive); with SNB-75, > 100 µM (inactive); with UO-31 it was 37.5 µM (inactive); with T47D, 28.6 µM (inactive); with MOLT-4, 8.32 µM (inactive). The GI50 with HCT-15 was 39.9 µM; with SNB-19, 92.9 µM (inactive); in the experiment with SK-MEL-28 it was > 100 µM (inactive); with SF-539, > 100 µM (inactive); in the experiment with CAKI-1, 54.2 µM (inactive); in the experiment with HOP-92, 47.8 µM (inactive). Moreover, the GI50 is 27.2 µM (inactive) with HL-60; 83.9 µM (inactive) in the experiment on HOP-62; 61.9 µM (inactive) with HT-29; 38 µM (inactive) in the experiment with HCC 2998; 41.8 µM (inactive) in the experiment on OVCAR-3; 44.2 µM (inactive) in the experiment with MDA-MB-435. For the same compound, the GI50 in the experiment with COLO 205 was 31.7 µM (inactive); in the experiment on SF-295 it was 36.1 µM (inactive).

With `CCOC(=O)/C(=C\c1cn(C(C)=O)c2ccccc12)P(C)(=O)OCC` (stereo not given), the GI50 with NCI/ADR-RES is 20.4 µM (inactive); with RPMI-8226, > 100 µM (inactive); in the experiment on SNB-75 it was 11 µM (inactive); in the experiment with UO-31, 32.3 µM (inactive); in the experiment on T47D, 37.2 µM (inactive); in the experiment with MOLT-4, > 100 µM (inactive). Also, the GI50 is 28.8 µM in the experiment with HCT-15; 49.9 µM (inactive) with SNB-19; 64.7 µM (inactive) with SK-MEL-28; 19.8 µM (inactive) with SF-539; 46.2 µM (inactive) with CAKI-1; 17.2 µM (inactive) in the experiment on HOP-92. The GI50 is > 100 µM (inactive) in the experiment with HL-60; 33.2 µM (inactive) in the experiment with HOP-62; 39.9 µM (inactive) in the experiment on HT-29; 27.9 µM (inactive) in the experiment with HCC 2998; 28.5 µM (inactive) with OVCAR-3; 31.8 µM (inactive) in the experiment with MDA-MB-435. Also, the figures for the GI50 in the experiment on COLO 205 and in the experiment on SF-295 were 54.5 µM (inactive) and 41.8 µM (inactive), respectively.

`CC(=O)NC1=CC(=O)C=C(Cl)C1=O`: the GI50 in the experiment on NCI/ADR-RES is > 100 µM (inactive); in the experiment with RPMI-8226, 22.6 µM (inactive); with SNB-75 it was > 100 µM (inactive); in the experiment with UO-31, > 100 µM (inactive); in the experiment on T47D, > 100 µM (inactive); in the experiment with MOLT-4, 22.2 µM (inactive). For the same compound, the GI50 in the experiment on HCT-15 is over 100 µM; in the experiment on SNB-19, > 100 µM (inactive); in the experiment with SK-MEL-28, > 100 µM (inactive); with SF-539, > 100 µM (inactive); in the experiment on CAKI-1 it was > 100 µM (inactive); with HOP-92, > 100 µM (inactive). Further, the GI50 is 20.9 µM (inactive) with HL-60; > 100 µM (inactive) with HOP-62; > 100 µM (inactive) in the experiment on HT-29; > 100 µM (inactive) in the experiment on HCC 2998; > 100 µM (inactive) with OVCAR-3; 17.9 µM (inactive) in the experiment with MDA-MB-435. Moreover, the figures for the GI50 with COLO 205 and with SF-295 were 39.3 µM (inactive) and > 100 µM (inactive), respectively.

On to `CSc1nc(SC)c2c(C)cn(COCCOC(=O)c3ccccc3)c2n1`, for which the GI50 was > 100 µM (inactive) in the experiment on NCI/ADR-RES; 69.5 µM (inactive) in the experiment on RPMI-8226; 50.2 µM (inactive) with SNB-75; 44.3 µM (inactive) with UO-31; 32.8 µM (inactive) in the experiment with T47D; 59.6 µM (inactive) in the experiment on MOLT-4. For the same compound, the GI50 in the experiment with HCT-15 is over 100 µM; with SNB-19, > 100 µM (inactive); in the experiment on SK-MEL-28, > 100 µM (inactive); with SF-539, 27.3 µM (inactive); in the experiment with CAKI-1, > 100 µM (inactive); in the experiment with HOP-92, 41.5 µM (inactive). Moreover, the GI50 was 36.7 µM (inactive) with HL-60; > 100 µM (inactive) in the experiment with HOP-62; > 100 µM (inactive) in the experiment with HT-29; > 100 µM (inactive) in the experiment with HCC 2998; > 100 µM (inactive) in the experiment on OVCAR-3; > 100 µM (inactive) in the experiment with MDA-MB-435. Moreover, the GI50 in the experiment with COLO 205 and in the experiment on SF-295 was > 100 µM (inactive) in each case.

In the case of `CCCCCCCC/C=C1\CCC(CN2CCOCC2)C1=O` (stereo not given), the GI50 with NCI/ADR-RES was 3.79 µM (inactive); with RPMI-8226 it was 0.551 µM (active); in the experiment on SNB-75, 2.61 µM (inactive); in the experiment with UO-31, 8.36 µM (inactive); with T47D it was 1.85 µM (inactive); with MOLT-4 it was 2.13 µM (inactive). The GI50 in the experiment with HCT-15 was 3.09 µM; in the experiment on SNB-19, 11.2 µM (inactive); with SK-MEL-28, 9.35 µM (inactive); with SF-539, 7.74 µM (inactive); with CAKI-1 it was 8.87 µM (inactive); in the experiment with HOP-92, 16.6 µM (inactive). Besides, the GI50 is 3.11 µM (inactive) in the experiment on HL-60; 15.1 µM (inactive) in the experiment on HOP-62; 6.98 µM (inactive) in the experiment with HT-29; 11.5 µM (inactive) with HCC 2998; 7.5 µM (inactive) in the experiment on OVCAR-3; 4.81 µM (inactive) with MDA-MB-435. Also, the GI50 in the experiment on COLO 205 is 5.77 µM (inactive); in the experiment on SF-295, 14.7 µM (inactive).

As for `CCOC(=O)c1nc2cc(N3CCOCC3)c(F)cc2[nH]c1=O`, the GI50 in the experiment with NCI/ADR-RES was > 100 µM (inactive); with RPMI-8226 it was > 100 µM (inactive); with SNB-75 it was 52 µM (inactive); with UO-31, 35.2 µM (inactive); with T47D, > 100 µM (inactive); with MOLT-4, > 100 µM (inactive). The GI50 in the experiment with HCT-15 was over 100 µM; in the experiment on SNB-19, > 100 µM (inactive); in the experiment on SK-MEL-28, > 100 µM (inactive); with SF-539, > 100 µM (inactive); in the experiment with CAKI-1 it was > 100 µM (inactive); in the experiment with HOP-92, 37.9 µM (inactive). In addition, the GI50 was 19.8 µM (inactive) in the experiment with HL-60; 57.5 µM (inactive) with HOP-62; 69.8 µM (inactive) in the experiment with HT-29; > 100 µM (inactive) in the experiment with HCC 2998; > 100 µM (inactive) with OVCAR-3; > 100 µM (inactive) in the experiment on MDA-MB-435. Besides, the GI50 in the experiment with COLO 205 is > 100 µM (inactive); with SF-295 it was 83.4 µM (inactive).

`COc1cc2c(cc1OC)C(Cc1ccccc1CCCl)=NCC2`: the GI50 in the experiment with NCI/ADR-RES is 25.8 µM (inactive); in the experiment with RPMI-8226, 24.2 µM (inactive); with SNB-75, 30.3 µM (inactive); in the experiment on UO-31 it was 31.3 µM (inactive); with T47D it was 31.8 µM (inactive); with MOLT-4, 38.6 µM (inactive). Besides, the GI50 was 25.1 µM in the experiment on HCT-15; 55.3 µM (inactive) in the experiment on SNB-19; > 100 µM (inactive) in the experiment with SK-MEL-28; 21.2 µM (inactive) with SF-539; 76.6 µM (inactive) in the experiment on CAKI-1; 30.3 µM (inactive) in the experiment on HOP-92. The GI50 was 19.8 µM (inactive) in the experiment on HL-60; > 100 µM (inactive) in the experiment with HOP-62; 6.85 µM (inactive) with HT-29; 24.2 µM (inactive) with HCC 2998; > 100 µM (inactive) in the experiment on OVCAR-3; 40.1 µM (inactive) with MDA-MB-435. For the same compound, the values for the GI50 in the experiment on COLO 205 and in the experiment on SF-295 were 26.6 µM (inactive) and 33.7 µM (inactive), respectively.
